Reference: patent US9956199B2, “Chromane-like cyclic prenylflavonoids for the medical intervention in neurological disorders” (priority 2011, dated 2018)
Entries after “also recorded” stand apart in the source; their conditions may differ.

Key:
Neuro-2a cells = assay: neurite length in Neuro2a cells (GAP-43 staining); format: cell-based, mouse; settings: 10 μM, 2 days, compared to control and RA/VPA
Experimental: For more precise analysis of neurite length Neuro2a cells were selected and stimulated for 2 days with RA/VPA as positive control and ENDFs in MEM+10% FCS. Immunocytochemical analysis was performed using GAP43 antibody which is known as a strong neuronal plasticity marker.
Neuro2a cells were grown in MEM with Earle's Salts (PAA, Pasching, Austria) containing 2 mM L-glutamine, 100 μg/ml Penicillin/Streptomycin (PAN Biotech GmbH, Aidenbach, Germany), 100 mM sodium pyruvate (Sigma-Aldrich, Taufkirchen, Germany) and 10% FCS (Lonza, Wuppertal, Germany).
The cells were passaged with 6 ml trypsin 0.5 mg/ml+EDTA 0.22 mg/ml (PAA, Pasching, Austria) two times per week. For analysis of neurite length Neuro2a cells were seeded on coverslips in a 24 well plate coated with Poly-L-ornithine and Laminin in a differentiation media MEM with Earle's Salts (PAA, Pasching, Austria) containing 2 mM L-glutamine, 100 μg/ml Penicillin/Streptomycin (PAN Biotech GmbH, Aidenbach, Germany), 100 mM sodium pyruvate (Sigma-Aldrich, Taufkirchen, Germany) and 1% FCS (Lonza, Wuppertal, Germany) and treated for 2 days with retinoic acid plus valproic acid and compound 1a (ENDF1) 10 μM, compound 1b (ENDF3) 10 μM, compound 3a (ENDF2) 10 μM, or ENDF4 10 μM. Cells were fixed as described in Example 18. Immunostaining was performed using GAP-43 1:500 (AbD Serotec, Oxford, UK).

[1] = tested on: mouse embryonic day 16 forebrain (MEF) cells; assay: normalized renilla luciferase activity (cell survival / relative cytotoxicity); format: cell-based; settings: three days, FIG. 1D
Experimental: Luciferase assays were performed using a noncommercial dual luciferase enzyme assay system (Dyer et al., 2000, Anal Biochem). In this system, a co-transfection with pDCX-Luci and a control vector driving Renilla-luciferase under the CMV promoter was performed. The two different luciferases have different specific substrates and, therefore, the DCX regulatory region driven firefly luciferase activity can be distinguished from CMV driven Renilla-luciferase. For analysis, the firefly luciferase activity was normalized against the CMV driven Renilla-luciferase. […]
Elmer, Calif., USA) according to the manufacturer's instructions. Then, 100 μl of freshly prepared Renilla assay solution consisting of 1.1 M NaCl (VWR, Vienna, Austria), 2.2 mM Na2EDTA, 0.22 M KH2PO4 pH 5.1 (Merck, Darmstadt, Germany), 0.44 mg/mL BSA (Biomol, Hamburg, Germany), 1.3 mM NaN3 (Sigma-Aldrich, Taufkirchen, Germany), […] coelenterazine (p.j.k., Kleinblittersdorf, Germany) per well were added and measurements were performed using the Victor™ X Multilable Plate Reader as described above. Data were normalized the following way: i) firefly (FF) luciferase activity is related to the renilla (R) luciferase activity; and ii) the FF/R values of the individual samples are related to the FF/R value obtained by stimulation with the control medium and expressed as x-fold change compared to control. […]

Row | Structure (SMILES) | neurite length and branching (Neuro-2a cells) | normalized renilla activity (approximate measure of cell survival / relative cytotoxicity) [1]
1 | COc1cc2c(c(O)c1C(=O)/C=C/c1ccc(O)cc1)C=CC(C)(C)O2 [Compound 1a, (E)-1-(5-hydroxy-7-methoxy-2,2-dimethyl-2H-chromen-6-yl)-3-(4-hydroxyphenyl)prop-2-en-1-one] | longer growth of neurites as well as more elaborated branches; also recorded: strong and significant increase on neurite length and more elaborated branches | significantly higher than that exerted by the reference compounds xanthohumol and osajin
2 | COc1cc2c(c(O)c1C(=O)/C=C/c1ccc(O)cc1)CCC(C)(C)O2 [Compound 1b, (E)-1-(5-hydroxy-7-methoxy-2,2-dimethylchroman-6-yl)-3-(4-hydroxyphenyl)prop-2-en-1-one] | longer growth of neurites as well as more elaborated branches; also recorded: strong and significant increase on neurite length and more elaborated branches | significantly higher than that exerted by the reference compounds xanthohumol and osajin
